Converted amounts (≈) assume the structure as drawn.
Columns and labels:
Type in all cases: functional
[1] = tested on: Candida albicans; assay: 50% inhibitory activity against Candida albicans (40 clinical isolates) determined at pH-7.2
[2] = tested on: Candida; assay: 50% inhibitory activity against the Candida. species (40 clinical isolates) was determined at pH-7.2
[3] = tested on: Candida albicans; assay: Inhibitory activity against the Candida albicans (40 clinical isolates), determined at pH-7.2
[4] = tested on: Candida; assay: Inhibitory activity against Candida. species (40 clinical isolates), determined at pH-5.8
[5] = tested on: Candida albicans; assay: Percent resistance against Candida albicans (40 clinical isolates) at 256 micro g/mL (pH=5.8), activity is expressed as R%.
[6] = tested on: Candida; assay: Resistance against all Candida. species (40 clinical isolates) at 256 micro g/mL (pH=5.8). Activity is expressed as R%.
[7] = tested on: Candida; assay: Inhibitory activity against Candida. species. (40 clinical isolates), determined at pH-7.2
[8] = tested on: Candida; assay: Percent resistance against all Candida. species (40 clinical isolates) at 256 micro g/mL (pH=7.2), activity is expressed as R%.
[9] = tested on: Candida albicans; assay: Inhibitory activity against Candida albicans (40 clinical isolates), determined at pH-7.2
[10] = tested on: Candida albicans; assay: Resistance against Candida. albicans (40 clinical isolates) at 256 ug/mL (pH=7.2), activity is expressed as R%.
[11] = tested on: Candida albicans; assay: Inhibitory activity against the Candida albicans (40 clinical isolates), determined at pH-5.8
[12] = tested on: Candida albicans; assay: 50% inhibitory activity against Candida albicans (40 clinical isolates) determined at pH-5.8
[13] = tested on: Candida albicans; assay: Inhibitory activity against Candida albicans (40 clinical isolates), determined at pH-5.8
[14] = tested on: Candida; assay: 90% inhibitory activity against Candida. species (40 clinical isolates) determined at pH-7.2
[15] = tested on: Candida; assay: Inhibitory activity against Candida. species. (40 clinical isolates), determined at pH-5.8
[16] = Candida albicans, read-out: MIC50

SMILES	MIC50 [1, 16]	MIC50 [2]	MIC90 [3]	MIC50 [4]	MIC90 [4]	R [5]	R [6]	MIC [7]	R [8]	MIC [9]	R [10]	MIC90 [11]	MIC50 [12]	MIC [13]	MIC90 [14]	MIC [15]	MIC50 [1]
Fc1ccc(C(c2c[nH]cc2-c2ccccc2Cl)n2ccnc2)cc1 (centres undefined)	32 µg/mL (≈ 91 µM)	64 µg/mL (≈ 182 µM)	64 µg/mL (≈ 182 µM)	64 µg/mL (≈ 182 µM)	64 µg/mL (≈ 182 µM)	0%	0%	107 µg/mL (≈ 305 µM)	0%	36.5 µg/mL (≈ 104 µM)	0%	64 µg/mL (≈ 182 µM)	32 µg/mL (≈ 91 µM)	48.3 µg/mL (≈ 137 µM)	256 µg/mL (≈ 728 µM)	71.1 µg/mL (≈ 202 µM)	
Clc1ccc(-c2c[nH]cc2C(c2ccc(-n3cccc3)cc2)n2ccnc2)cc1 (centres undefined)	64 µg/mL (≈ 160 µM)	256 µg/mL (≈ 642 µM)	256 µg/mL (≈ 642 µM)	64 µg/mL (≈ 160 µM)	> 256 µg/mL	16%	40%	> 229 µg/mL	50%	> 121 µg/mL	20%	256 µg/mL (≈ 642 µM)	64 µg/mL (≈ 160 µM)	> 119 µg/mL	256 µg/mL (≈ 642 µM)	> 156 µg/mL	
Clc1ccc(C(c2c[nH]cc2-c2ccccc2)n2ccnc2)c(Cl)c1 (centres undefined)	> 256 µg/mL	> 256 µg/mL	> 256 µg/mL	> 256 µg/mL	> 256 µg/mL	100%	100%	> 256 µg/mL	100%	> 256 µg/mL	100%	> 256 µg/mL	> 256 µg/mL	> 256 µg/mL	> 256 µg/mL	> 256 µg/mL	
Clc1ccc(C(c2c[nH]cc2-c2ccc(Cl)cc2Cl)n2ccnc2)cc1 (centres undefined)	8 µg/mL (≈ 19.9 µM)	64 µg/mL (≈ 159 µM)	256 µg/mL (≈ 636 µM)	16 µg/mL (≈ 39.7 µM)	16 µg/mL (≈ 39.7 µM)	0%	0%	> 212 µg/mL	40%	> 66.4 µg/mL	5%	256 µg/mL (≈ 636 µM)	4 µg/mL (≈ 9.93 µM)	> 6.8 µg/mL	> 256 µg/mL	13.7 µg/mL (≈ 34 µM)	
c1ccc(-c2c[nH]cc2C(c2ccc(-n3cccc3)cc2)n2ccnc2)cc1 (centres undefined)	16 µg/mL (≈ 43.9 µM)	32 µg/mL (≈ 87.8 µM)	32 µg/mL (≈ 87.8 µM)	32 µg/mL (≈ 87.8 µM)	64 µg/mL (≈ 176 µM)	0%	0%	42.1 µg/mL (≈ 116 µM)	0%	37.3 µg/mL (≈ 102 µM)	0%	32 µg/mL (≈ 87.8 µM)	16 µg/mL (≈ 43.9 µM)	30.4 µg/mL (≈ 83.4 µM)	64 µg/mL (≈ 176 µM)	40 µg/mL (≈ 110 µM)	
Clc1ccc(C(c2c[nH]cc2-c2ccccc2)n2ccnc2)cc1Cl (centres undefined)	16 µg/mL (≈ 43.4 µM)	128 µg/mL (≈ 348 µM)	64 µg/mL (≈ 174 µM)	64 µg/mL (≈ 174 µM)	64 µg/mL (≈ 174 µM)	0%	0%	191 µg/mL (≈ 519 µM)	20%	41.9 µg/mL (≈ 114 µM)	0%	64 µg/mL (≈ 174 µM)	16 µg/mL (≈ 43.4 µM)	38.6 µg/mL (≈ 105 µM)	256 µg/mL (≈ 695 µM)	114 µg/mL (≈ 311 µM)	
O=[N+]([O-])c1ccc(C(c2c[nH]cc2-c2ccc(Cl)c(Cl)c2)n2ccnc2)cc1 (centres undefined)	256 µg/mL (≈ 619 µM)	> 256 µg/mL	> 256 µg/mL	> 256 µg/mL	> 256 µg/mL	50%	100%	> 256 µg/mL	100%	> 312 µg/mL	50%	> 256 µg/mL	256 µg/mL (≈ 619 µM)	> 283 µg/mL	> 256 µg/mL	> 256 µg/mL	
Clc1ccc(C(c2c[nH]cc2-c2ccccc2Cl)n2ccnc2)cc1 (centres undefined)	8 µg/mL (≈ 21.7 µM)	16 µg/mL (≈ 43.4 µM)	16 µg/mL (≈ 43.4 µM)	32 µg/mL (≈ 86.9 µM)	64 µg/mL (≈ 174 µM)	0%	0%	15 µg/mL (≈ 40.7 µM)	0%	9.1 µg/mL (≈ 24.7 µM)	0%	32 µg/mL (≈ 86.9 µM)		18.7 µg/mL (≈ 50.8 µM)	16 µg/mL (≈ 43.4 µM)	30.2 µg/mL (≈ 82 µM)	16 µg/mL (≈ 43.4 µM)
Nc1ccc(C(c2c[nH]cc2-c2ccc(Cl)cc2)n2ccnc2)cc1 (centres undefined)	64 µg/mL (≈ 183 µM)	128 µg/mL (≈ 367 µM)	128 µg/mL (≈ 367 µM)	82.5 µg/mL (≈ 237 µM)	82.5 µg/mL (≈ 237 µM)	0%	0%	184 µg/mL (≈ 527 µM)	0%	98.2 µg/mL (≈ 282 µM)	0%	128 µg/mL (≈ 367 µM)	32 µg/mL (≈ 91.7 µM)	42.8 µg/mL (≈ 123 µM)	128 µg/mL (≈ 367 µM)	82.5 µg/mL (≈ 237 µM)	

From ChEMBL document CHEMBL1128323, “Antifungal agents. 9. 3-Aryl-4-[alpha-(1H-imidazol-1-yl)arylmethyl]pyrroles: a new class of potent anti-Candida agents” (1995)
